± gives the expanded uncertainty stated by the source.
Details: Liquid, Buoyancy - hydrostatic balance with magnetic suspension - one sinker

CCCCCCCCC [nonane]
Details	mass density [kg/m3]
233.15 K, 101.46 kPa	763.962 ± 0.24
233.15 K, 1176.1 kPa	764.563 ± 0.24
233.15 K, 2178.2 kPa	765.126 ± 0.24
233.15 K, 4167 kPa	766.231 ± 0.24
233.15 K, 5936.5 kPa	767.203 ± 0.24
233.15 K, 8144.5 kPa	768.395 ± 0.24
233.15 K, 10066 kPa	769.42 ± 0.24
233.15 K, 12148 kPa	770.516 ± 0.25
233.15 K, 14076 kPa	771.516 ± 0.25
233.15 K, 16087 kPa	772.548 ± 0.25
233.15 K, 18067 kPa	773.551 ± 0.25
233.15 K, 19984 kPa	774.511 ± 0.25
233.15 K, 21990 kPa	775.502 ± 0.25
233.15 K, 24044 kPa	776.506 ± 0.25
233.15 K, 25990 kPa	777.446 ± 0.25
233.15 K, 27927 kPa	778.373 ± 0.25
233.15 K, 29906 kPa	779.308 ± 0.25
253.15 K, 101.82 kPa	748.678 ± 0.24
253.15 K, 1135.3 kPa	749.335 ± 0.24
253.15 K, 2178.6 kPa	749.992 ± 0.24
253.15 K, 3967.8 kPa	751.107 ± 0.24
253.15 K, 6147.5 kPa	752.446 ± 0.24
253.15 K, 8138 kPa	753.648 ± 0.24
253.15 K, 10112 kPa	754.82 ± 0.24
253.15 K, 12111 kPa	755.991 ± 0.24
253.15 K, 14130 kPa	757.156 ± 0.24
253.15 K, 16140 kPa	758.299 ± 0.24
253.15 K, 18106 kPa	759.398 ± 0.24
253.15 K, 20064 kPa	760.484 ± 0.24
253.15 K, 22026 kPa	761.552 ± 0.24
253.15 K, 23955 kPa	762.59 ± 0.24
253.15 K, 25972 kPa	763.661 ± 0.24
253.15 K, 27913 kPa	764.677 ± 0.24
253.15 K, 29967 kPa	765.739 ± 0.24
273.15 K, 102.52 kPa	733.389 ± 0.23
273.15 K, 1156.8 kPa	734.143 ± 0.23
273.15 K, 2138 kPa	734.842 ± 0.23
273.15 K, 4026 kPa	736.166 ± 0.23
273.15 K, 6169.4 kPa	737.644 ± 0.23
273.15 K, 8161.4 kPa	738.99 ± 0.23
273.15 K, 10122 kPa	740.29 ± 0.23
273.15 K, 12106 kPa	741.586 ± 0.23
273.15 K, 14101 kPa	742.864 ± 0.23
273.15 K, 16067 kPa	744.108 ± 0.23
273.15 K, 18074 kPa	745.354 ± 0.23
273.15 K, 20036 kPa	746.555 ± 0.24
273.15 K, 22000 kPa	747.737 ± 0.24
273.15 K, 23996 kPa	748.923 ± 0.24
273.15 K, 25994 kPa	750.093 ± 0.24
273.15 K, 27982 kPa	751.238 ± 0.24
273.15 K, 29876 kPa	752.316 ± 0.24
293.15 K, 101.69 kPa	717.968 ± 0.22
293.15 K, 1184.3 kPa	718.847 ± 0.22
293.15 K, 2129.2 kPa	719.604 ± 0.22
293.15 K, 3960.5 kPa	721.055 ± 0.23
293.15 K, 6115.4 kPa	722.729 ± 0.23
293.15 K, 7981.6 kPa	724.145 ± 0.23
293.15 K, 10015 kPa	725.663 ± 0.23
293.15 K, 12149 kPa	727.214 ± 0.23
293.15 K, 13981 kPa	728.526 ± 0.23
293.15 K, 16170 kPa	730.062 ± 0.23
293.15 K, 17943 kPa	731.285 ± 0.23
293.15 K, 20200 kPa	732.813 ± 0.23
293.15 K, 22156 kPa	734.115 ± 0.23
293.15 K, 24158 kPa	735.421 ± 0.23
293.15 K, 26136 kPa	736.696 ± 0.23
293.15 K, 28126 kPa	737.958 ± 0.23
